{"source": "ChEMBL document CHEMBL5030545", "about": "“Discovery of clinical candidate Sivopixant (S-600918): Lead optimization of dioxotriazine derivatives as selective P2X3 receptor antagonists” (Bioorg Med Chem Lett, 2021)", "key": {"[1]": {"assay": "Solubility of the compound in JP2 fluid at pH 6.8", "format": "physicochemical"}, "Cytochrome P450 1A2": {"target": "T1, Cytochrome P450 1A2 (Homo sapiens, UniProt P05177)", "T1 sequence (P05177 whole entry)": "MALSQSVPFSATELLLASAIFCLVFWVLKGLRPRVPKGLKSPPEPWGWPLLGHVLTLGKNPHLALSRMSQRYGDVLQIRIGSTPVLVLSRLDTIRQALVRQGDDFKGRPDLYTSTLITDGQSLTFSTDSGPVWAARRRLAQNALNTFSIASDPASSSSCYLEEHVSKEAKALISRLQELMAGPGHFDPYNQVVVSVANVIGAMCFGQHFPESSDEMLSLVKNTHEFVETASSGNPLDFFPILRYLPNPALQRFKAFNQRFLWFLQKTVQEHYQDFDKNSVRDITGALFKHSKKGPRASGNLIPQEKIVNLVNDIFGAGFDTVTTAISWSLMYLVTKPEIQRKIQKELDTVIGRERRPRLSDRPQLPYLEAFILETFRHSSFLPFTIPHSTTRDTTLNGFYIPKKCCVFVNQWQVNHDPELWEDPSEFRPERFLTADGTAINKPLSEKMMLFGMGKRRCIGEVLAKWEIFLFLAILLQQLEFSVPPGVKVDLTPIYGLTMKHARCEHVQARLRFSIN", "assay": "Inhibition of CYP1A2 (unknown origin)", "format": "ADME"}, "Cytochrome P450 2D6": {"target": "Cytochrome P450 2D6 (Homo sapiens, UniProt P10635)", "sequence (P10635 whole entry)": "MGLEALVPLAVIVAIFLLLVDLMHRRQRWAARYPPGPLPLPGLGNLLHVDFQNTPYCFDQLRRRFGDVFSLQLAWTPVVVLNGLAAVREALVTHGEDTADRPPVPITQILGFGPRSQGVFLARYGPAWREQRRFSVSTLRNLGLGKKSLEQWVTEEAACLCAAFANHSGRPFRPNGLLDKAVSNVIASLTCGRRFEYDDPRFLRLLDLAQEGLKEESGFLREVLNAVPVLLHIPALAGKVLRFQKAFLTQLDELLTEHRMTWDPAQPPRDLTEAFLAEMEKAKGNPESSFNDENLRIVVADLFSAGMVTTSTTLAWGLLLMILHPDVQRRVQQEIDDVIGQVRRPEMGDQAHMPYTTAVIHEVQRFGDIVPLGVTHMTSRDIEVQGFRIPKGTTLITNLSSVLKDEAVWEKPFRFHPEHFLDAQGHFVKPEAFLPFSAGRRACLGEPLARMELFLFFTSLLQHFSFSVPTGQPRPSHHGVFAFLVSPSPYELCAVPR", "assay": "Inhibition of CYP2D6 (unknown origin)", "format": "functional"}, "Cytochrome P450 3A4": {"target": "Cytochrome P450 3A4 (Homo sapiens, UniProt P08684)", "sequence (P08684 whole entry)": "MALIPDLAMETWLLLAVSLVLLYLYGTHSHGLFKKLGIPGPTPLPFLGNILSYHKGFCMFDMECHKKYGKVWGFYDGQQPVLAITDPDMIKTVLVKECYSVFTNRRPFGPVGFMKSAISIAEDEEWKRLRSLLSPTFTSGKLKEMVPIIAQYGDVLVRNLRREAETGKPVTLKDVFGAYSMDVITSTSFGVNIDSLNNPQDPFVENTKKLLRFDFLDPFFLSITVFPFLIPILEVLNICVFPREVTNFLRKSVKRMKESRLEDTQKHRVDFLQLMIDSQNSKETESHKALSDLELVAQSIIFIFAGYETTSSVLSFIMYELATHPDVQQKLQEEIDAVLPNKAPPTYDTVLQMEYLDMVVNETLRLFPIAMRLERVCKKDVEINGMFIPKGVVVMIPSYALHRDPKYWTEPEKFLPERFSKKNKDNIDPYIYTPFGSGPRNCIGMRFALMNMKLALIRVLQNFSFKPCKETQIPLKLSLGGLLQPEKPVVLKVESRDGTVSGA", "assay": "Inhibition of CYP3A4 (unknown origin)", "format": "ADME"}, "[2]": {"assay": "Half life in rat at 1 mg/kg, iv", "format": "ADME, organism-based", "conditions": "in vivo"}, "[3]": {"assay": "Oral bioavailability in rat at 3 mg/kg", "format": "ADME, organism-based", "conditions": "in vivo"}, "[4]": {"assay": "Protein binding in rat plasma assessed as unbound fraction at 3 mg/kg, iv", "format": "ADME, organism-based"}, "Rattus norvegicus": {"test_system": "Rattus norvegicus", "assay": "Analgesic activity in rat model of partial sciatic nerve ligation-induced neuropathic pain assessed as maximum efficacy at 3 mg/kg, po relative to control", "format": "functional"}, "[5]": {"assay": "Ratio of plasma concentration in rat measured after 3 hrs to IC50 of P2X3 (unknown origin)", "format": "ADME", "conditions": "in vivo"}}}
{"smiles": "C[C@@H](Cn1c(=O)[nH]/c(=N\\c2ccc(Oc3ccccn3)cc2)n(Cc2ccc(Cl)cc2)c1=O)C(=O)O", "values": [{"measurement": "solubility", "setting": "[1]", "result": 458, "unit": "µg/mL"}, {"measurement": "IC50", "setting": "Cytochrome P450 1A2", "result": "> 20", "unit": "µM"}, {"measurement": "IC50", "setting": "Cytochrome P450 2D6", "result": "> 20", "unit": "µM"}, {"measurement": "IC50", "setting": "Cytochrome P450 3A4", "result": "> 20", "unit": "µM"}, {"measurement": "half-life", "setting": "[2]", "result": 10.1, "unit": "h"}, {"measurement": "bioavailability", "setting": "[3]", "result": 76.8, "unit": "%"}, {"measurement": "fraction unbound", "setting": "[4]", "result": 0.01}, {"measurement": "Emax at 3 mg/kg", "setting": "Rattus norvegicus", "result": 64, "unit": "%"}, {"measurement": "Ratio", "setting": "[5]", "result": 156.9}]}
